Results published in patent publication US10294202B2, “Pyrrolidinones as herbicides” (FMC Corporation, priority 2013, dated 2019).

Assays:
[1] = system: wheat; assay: Test A pre-/postemergence herbicide test; assay type: in vivo, Triticum aestivum
In short: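 Directed soil spray to seeded pots (preemergence) or spray onto one- to two-leaf seedlings 2–10 cm tall (postemergence); loam/sand substrate throughout. Evaluated visually after about 10 days against untreated plants, 0 = no effect, 100 = complete control.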

[2] = system: ragweed; assay: Test C pre-/postemergence herbicide test; assay type: in vivo, Ambrosia elatior; settings: Preemergence
In short: (§1)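 Two application timings ran in parallel with identically formulated test chemicals (non-phytotoxic solvent, surfactant included): spray on seeded loam–sand soil, and spray on emerged plants 2 to 18 cm high. Evaluation at 13 to 15 days compared each species with controls, rated from 0 up to 100.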

[3] = system: wheat (winter wheat); assay: Test C pre-/postemergence herbicide test; assay type: in vivo, Triticum aestivum; settings: Preemergence
In short: as §1

[4] = system: johnsongrass; assay: Test C pre-/postemergence herbicide test; assay type: in vivo, Sorghum halepense; settings: Preemergence
In short: as §1

[5] = system: crabgrass, large; assay: Test C pre-/postemergence herbicide test; assay type: in vivo, Digitaria sanguinalis; settings: Preemergence
In short: as §1

[6] = system: blackgrass; assay: Test C pre-/postemergence herbicide test; assay type: in vivo, Alopecurus myosuroides; settings: Preemergence
In short: as §1

[7] = system: rice; assay: Test B flooded paddy test; assay type: in vivo, Oryza sativa; settings: Flood, scale of 0 to 100 where 0 is no effect and 100 is complete control
In short: (§2)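 2-leaf plants; flood 3 cm over soil; compound into paddy water; depth held. Greenhouse 13–15 d. Visual rating vs controls, 0 (no effect) to 100 (complete control); dash = not tested.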

[8] = system: velvetleaf; assay: Test C pre-/postemergence herbicide test; assay type: in vivo, Abutilon theophrasti; settings: Preemergence
In short: as §1

[9] = system: sedge, umbrella; assay: Test B flooded paddy test; assay type: in vivo, Cyperus difformis; settings: Flood, scale of 0 to 100 where 0 is no effect and 100 is complete control
In short: as §2

[10] = system: pigweed; assay: Test C pre-/postemergence herbicide test; assay type: in vivo, Amaranthus retroflexus; settings: Preemergence
In short: as §1

[11] = system: oilseed rape; assay: Test C pre-/postemergence herbicide test; assay type: in vivo, Brassica napus; settings: Preemergence
In short: as §1

[12] = system: barnyardgrass; assay: Test B flooded paddy test; assay type: in vivo, Echinochloa crus-galli; settings: Flood, scale of 0 to 100 where 0 is no effect and 100 is complete control
In short: as §2

[13] = 31 g ai/ha, scale 0 to 100, 0 is no effect and 100 is complete control
[14] = 62 g ai/ha, scale 0 to 100 (0 no effect, 100 complete control)
[15] = 125 g ai/ha, scale 0 to 100 (0 no effect, 100 complete control)

In the case of O=C1NCC(c2cccc(C(F)(F)F)c2)C1C(=O)Nc1cccc(F)c1F (stereo not drawn) [Compound 241], the “Plant response rating, Wheat” value ([1]; Postemergence, 125 g ai/ha, 0 to 100 scale, 0 is no effect, 100 is complete control) is reported as 30, the “Plant response rating, Wheat” value ([1]; Postemergence, 500 g ai/ha, 0 to 100 scale (0 no effect, 100 complete control)) is reported as 70 and the “Plant response rating, Wheat” value ([1]; Preemergence, 125 g ai/ha, 0 to 100 scale where 0 is no effect and 100 is complete control) is reported as 20. The “Plant response rating, Wheat” value ([1]; preemergence, 500 g ai/ha, 0 to 100 scale, 0 is no effect and 100 is complete control) was 30, the “Ragweed plant response rating” value [2, 13] was 0 and the “Ragweed plant response rating” value [2, 14] was 25. For the same molecule, the “Plant response rating, Ragweed” value [2, 15] was 30, the “Plant response rating (scale of 0 to 100), Ragweed” value ([2]; 250 g ai/ha) was 70 and the “Wheat plant response rating” value [3, 13] was 0. For the same molecule, the “Wheat plant response rating” value [3, 14] was 45, the “Plant response rating, Wheat” value [3, 15] was 90 and the “Plant response rating (scale of 0 to 100), Wheat” value ([3]; 250 g ai/ha) was 80. The “Johnsongrass plant response rating” value [4, 13] was 85, the “Johnsongrass plant response rating” value [4, 14] was 80 and the “Plant response rating, Johnsongrass” value [4, 15] was 85. For the same molecule, the “Plant response rating (scale of 0 to 100), Johnsongrass” value ([4]; 250 g ai/ha) was 90, the “Crabgrass, Large plant response rating” value [5, 13] was 95 and the “Crabgrass, Large plant response rating” value [5, 14] was 95. The “Plant response rating, Crabgrass, Large” value [5, 15] was 98, the “Plant response rating (scale of 0 to 100), Crabgrass, Large” value ([5]; 250 g ai/ha) was 100 and the “Blackgrass plant response rating” value [6, 13] was 50. The “Plant response rating, Blackgrass” value ([6]; 62 g ai/ha, scale 0 to 100) was 70, the “Plant response rating, Blackgrass” value [6, 15] was 80 and the “Plant response rating (scale of 0 to 100), Blackgrass” value ([6]; 250 g ai/ha) was 85. The “Plant response rating, Rice” value ([7]; 250 g ai/ha) was 0, the “Plant response rating, Rice” value ([7]; 1000 g ai/ha) was 10 and the “Velvetleaf plant response rating” value [8, 13] was 0. For the same molecule, the “Velvetleaf plant response rating” value [8, 14] was 0, the “Plant response rating, Velvetleaf” value [8, 15] was 5 and the “Plant response rating (scale of 0 to 100), Velvetleaf” value ([8]; 250 g ai/ha) was 40. For the same molecule, the “Plant response rating, Sedge, Umbrella” value ([9]; 250 g ai/ha) was 0, the “Plant response rating, Sedge, Umbrella” value ([9]; 1000 g ai/ha) was 20 and the “Pigweed plant response rating” value [10, 13] was 0. The “Pigweed plant response rating” value [10, 14] was 0, the “Plant response rating, Pigweed” value [10, 15] was 25 and the “Plant response rating (scale of 0 to 100), Pigweed” value ([10]; 250 g ai/ha) was 70. The “Oilseed Rape plant response rating” value [11, 13] was 0, the “Oilseed Rape plant response rating” value [11, 14] was 0 and the “Plant response rating, Oilseed Rape” value [11, 15] was 70. The “Plant response rating (scale of 0 to 100), Oilseed Rape” value ([11]; 250 g ai/ha) was 85, the “Plant response rating, Barnyardgrass” value ([12]; 250 g ai/ha) was 55 and the “Plant response rating, Barnyardgrass” value ([12]; 1000 g ai/ha) was 75.
